ChEMBL document CHEMBL4765432, “Design and synthesis of novel Flavone-based histone deacetylase inhibitors antagonizing activation of STAT3 in breast cancer” (Eur J Med Chem, 2020)
The source made the active and inactive calls. The rule behind the calls is not given here.

Assays:
Histone deacetylase 9 = Histone deacetylase 9 (Homo sapiens, UniProt Q9UKV0); test: Inhibition of recombinant human N-terminal GST-tagged HDAC-9 (548 to end residues) expressed in baculovirus infected in Sf9 cells using Boc-Lys (q-Ac)-AMC as substrate incubated for 10 mins followed by substrate addition and measured after 30 mins by fluorescence based assay
Histone deacetylase 9, sequence (Q9UKV0 whole entry): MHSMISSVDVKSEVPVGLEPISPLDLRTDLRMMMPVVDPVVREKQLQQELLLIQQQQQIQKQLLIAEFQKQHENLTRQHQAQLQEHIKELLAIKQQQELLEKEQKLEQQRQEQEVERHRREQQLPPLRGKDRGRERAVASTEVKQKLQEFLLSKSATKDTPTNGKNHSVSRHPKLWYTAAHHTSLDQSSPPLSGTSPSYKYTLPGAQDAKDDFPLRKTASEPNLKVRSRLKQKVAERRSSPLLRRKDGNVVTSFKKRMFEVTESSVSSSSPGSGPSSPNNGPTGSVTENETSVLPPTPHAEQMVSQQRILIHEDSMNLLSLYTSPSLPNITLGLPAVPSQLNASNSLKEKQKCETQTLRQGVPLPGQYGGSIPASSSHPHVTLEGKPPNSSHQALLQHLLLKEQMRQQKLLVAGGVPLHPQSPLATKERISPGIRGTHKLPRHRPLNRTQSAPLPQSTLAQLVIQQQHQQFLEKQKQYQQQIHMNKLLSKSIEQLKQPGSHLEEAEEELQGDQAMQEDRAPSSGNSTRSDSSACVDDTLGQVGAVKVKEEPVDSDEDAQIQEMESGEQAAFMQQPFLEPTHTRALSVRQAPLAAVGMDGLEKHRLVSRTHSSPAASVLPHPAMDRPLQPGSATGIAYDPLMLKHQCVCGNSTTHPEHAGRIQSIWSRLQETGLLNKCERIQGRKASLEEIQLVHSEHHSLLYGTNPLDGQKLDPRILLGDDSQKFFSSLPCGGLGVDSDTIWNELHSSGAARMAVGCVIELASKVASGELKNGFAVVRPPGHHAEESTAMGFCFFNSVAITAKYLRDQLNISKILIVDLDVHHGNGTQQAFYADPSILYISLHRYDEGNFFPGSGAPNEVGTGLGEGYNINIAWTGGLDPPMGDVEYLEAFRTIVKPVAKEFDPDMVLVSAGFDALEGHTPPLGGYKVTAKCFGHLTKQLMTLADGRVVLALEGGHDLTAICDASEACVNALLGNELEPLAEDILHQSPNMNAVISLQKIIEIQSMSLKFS

MDA-MB-231 [1] = test: Induction of apoptosis in human MDA-MB-231 cells xenografted in BALB/c mouse assessed as increase in caspase-3 cleavage by immunohistochemistry method; format: functional, cell-based
4T1 [2] = test: Cytotoxicity against mouse 4T1 cells assessed as reduction in cell viability incubated for 48 hrs by MTT assay; format: functional, cell-based; conditions: 4T1, 48 h
BT-549 = test: Cytotoxicity against human BT-549 cells assessed as reduction in cell viability incubated for 48 hrs by MTT assay; format: functional, cell-based; conditions: BT-549, 48 h
MDA-MB-468 = test: Potency index, ratio of IC50 of SAHA to IC50 of compound for cytotoxicity against human MDA-MB-468 cells assessed as reduction in cell viability incubated for 48 hrs by MTT assay; format: functional
4T1 [3] = test: Induction of cell cycle arrest in mouse 4T1 cells assessed as increase in p21 expression at 0.25 to 5 uM incubated for 24 hrs by Western blot analysis; format: functional, cell-based; conditions: dose 0.25-5 µM
MDA-MB-231 [4] = test: Induction of apoptosis in human MDA-MB-231 cells assessed as late apoptotic cells at 2.5 uM incubated for 72 hrs by annexinV-FITC and PI staining based flow cytometry analysis (reference value: 3.79 %); format: functional
[5] = Cmax in Sprague-Dawley rat at 20 mg/kg, po measured upto 12 hrs by LC-MS/MS analysis; format: ADME, organism-based; set-up: route oral, dose 20 mg/kg, time <=12; conditions: in vivo
[6] = AUC (0 to infinity) in Sprague-Dawley rat at 20 mg/kg, po measured upto 12 hrs by LC-MS/MS analysis; format: ADME, organism-based; set-up: route oral, dose 20 mg/kg, time <=12; conditions: in vivo
[7] = Genotoxicity in Salmonella typhimurium TA98 by Ames test; format: toxicity; conditions: salmonella enterica subsp. enterica serovar typhimurium
[8] = Genotoxicity in Salmonella typhimurium TA1535 by Ames test; format: toxicity; conditions: salmonella enterica subsp. enterica serovar typhimurium
4T1 [9] = test: Antitumor activity against mouse 4T1 cells xenografted in BALB/c mouse assessed as tumor growth inhibition at 20 mg/kg, ip administered for 22 days and measured on day 22; format: functional, organism-based; conditions: time 22.0 day
[10] = Toxicity in BALB/c mouse xenografted with mouse 4T1 cells assessed as effect on body weight at 20 mg/kg, ip administered for 22 days and measured on day 22; format: organism-based; conditions: in vivo, 528 h, time 22 day
[11] = Toxicity in BALB/c mouse xenografted with human MDA-MB-231 cells assessed as effect on body weight at 25 mg/kg, ip administered for 34 days and measured on day 34; format: organism-based; conditions: in vivo, 816 h, time 34 day

CN(C)CCOc1ccc(-c2cc(=O)c3c(O)cc(OCCCCCC(=O)NO)cc3o2)cc1.Cl
IC50 (Histone deacetylase 9): > 10 µM
Activity (MDA-MB-231 [1]): Active
IC50 (4T1 [2]): 1.99 µM
IC50 (BT-549): 4.13 µM
Ratio IC50 (MDA-MB-468): 2
Activity (4T1 [3]): Active
Activity (MDA-MB-231 [4]): 24.3%
Cmax [5]: 1280 ng/mL
AUC(0-inf) [6]: 1640 ng·h/mL
Activity [7]: Toxic
Activity [8]: Non-Toxic
TGI (4T1 [9]): Active
Activity [10]: Non-Toxic
Activity [11]: Non-Toxic
